Assays:
[1] = test system: wheat rust fungus (Puccinia recondita); assay: Test Example 4: foliar spray of flowable formulations on potted wheat, wheat rust lesion area; assay type: in vivo; settings: wheat (cultivar. Shirogane), single use
Protocol: Five (5) parts of the present compound 1-1, 35 parts of a mixture of white carbon and ammonium polyoxyethylene alkyl ether sulfate (the weight ratio of 1:1) and […] of water were mixed, and the mixture was then finely-ground by a wet grinding method to obtain a flowable formulation comprising the present compound 1-1. Separately, the flowable formulation comprising the present compound 2-1 was prepared according to the above-mentioned similar method except that the present compound 2-1 was used instead of the present compound 1-1 to form a flowable formulation comprising the present compound 2-1.
Each of the above-mentioned respective flowable formulations, and the flowable formulation comprising the present compound 1-1 and the present compound 2-1 that was prepared according to the above-mentioned Formulation Example 3 was diluted with water such that each concentration of the respective compounds in the dilution solutions was adjusted to that indicated in Table 6, to prepare the dilution solutions, respectively.
A plastic pot was filled with soil, and thereto wheat (cultivar. Shirogane) was seeded, and the plants were grown in a greenhouse for ten days. […]
From each of the lesion area of the treated group and the untreated group, respectively, the efficacy of the treated group was calculated by the below-mentioned Equation 2. […]

wheat leaf blight fungus = assay: Test Example 3: growth of wheat leaf blight fungus in YBG medium, microtiter plate, absorbance at 550 nm; assay type: cell-based, Mycosphaerella graminicola; settings: single use, 18° C., six days
Protocol: The present compound 1-1 or the present compound 2-1 was dissolved into dimethyl sulfoxide such that each concentration of the present compound 1-1 or the present compound 2-1 was adjusted to one hundred fifty times as much as the concentration indicated in the below-mentioned Table 5. The resultant agent solution was dispensed into a microtiter plate (with 96 wells) in 1 μl portion thereof per well. One hundred forty nine (149) μl of YBG medium. (which was prepared by dissolving 10 g of yeast extract, 10 g of Bacto Peptone, and 20 mL of glycerol into 1 L of water, followed by sterilizing the medium) was dispensed into the wells to which the agent solution(s) was/were dispensed. The plate was cultivated at 18° C. for six days, thereby allowing wheat leaf blight fungus to undergo proliferation, and the absorbance at 550 nm of each well of the micro titer plate was then measured to examine a degree of growth of the wheat leaf blight fungus (hereinafter referred to as “treated group”).
Whereas, wheat leaf blight fungus was proliferated similarly to the case of the treated group except that dimethyl sulfoxide was used instead of the agent solution, and the degree of the growth was examined (hereinafter referred to as “untreated group”). The efficacy was calculated from the respective obtained degree of growth by the below-mentioned “Equation 1”.
Efficacy (%)=100×(X−Y)/X Equation 1 […]

Cc1nnc(Cl)c(-c2c(F)cccc2F)c1-c1ccccc1 [Present compound 1-1]
Efficacy (%) ([1]; concentration 0.0001 ppm): 20% | Efficacy (%) ([1]; concentration 0.01 ppm): 31% | Efficacy (%) (wheat leaf blight fungus; concentration in medium 0.005 ppm): 4% | Efficacy (%) (wheat leaf blight fungus; concentration in medium 0.1 ppm): 75%
